Data reported in patent US6737383B1, “Herbicidal oxadiazolidines” (priority 1999, dated 2004).

What was measured:
pigweed = experiment: Test B pre/postemergence pigweed; format: in vivo, Amaranthus retroflexus
Summary of the method: (§1)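 Response is a visual 0-to-10 score relative to untreated plants, where 0 means no effect and 10 means complete control, taken twelve to sixteen days after application. Treatments went onto soil at planting and onto foliage of 1- to 4-leaf plants, using a surfactant-containing non-phytotoxic solvent.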

blackgrass = experiment: Test B pre/postemergence blackgrass; format: in vivo, Alopecurus myosuroides
Summary of the method: as §1

corn = experiment: Test B pre/postemergence corn; format: in vivo, Zea mays
Summary of the method: as §1

rape = experiment: Test B pre/postemergence rape; format: in vivo, Brassica napus
Summary of the method: as §1

morningglory = experiment: Test B pre/postemergence morningglory; format: in vivo, Ipomoea hederacea
Summary of the method: as §1

wild oat = experiment: Test B pre/postemergence wild oat; format: in vivo, Avena fatua
Summary of the method: as §1

surinam grass = experiment: Test B pre/postemergence surinam grass; format: in vivo, Brachiaria decumbens
Summary of the method: as §1

giant foxtail = experiment: Test B pre/postemergence giant foxtail; format: in vivo, Setaria faberii
Summary of the method: as §1

crabgrass = experiment: Test B pre/postemergence crabgrass; format: in vivo, Digitaria sanguinalis
Summary of the method: as §1

purple nutsedge = experiment: Test B pre/postemergence purple nutsedge; format: in vivo, Cyperus rotundus
Summary of the method: as §1

bedstraw = experiment: Test B pre/postemergence bedstraw; format: in vivo, Galium aparine
Summary of the method: as §1

soybean = experiment: Test B pre/postemergence soybean; format: in vivo, Glycine max
Summary of the method: as §1

sugar beet = experiment: Test B pre/postemergence sugar beet; format: in vivo, Beta vulgaris
Summary of the method: as §1

wheat = experiment: Test B pre/postemergence wheat; format: in vivo, Triticum aestivum
Summary of the method: as §1

velvetleaf = experiment: Test B pre/postemergence velvetleaf; format: in vivo, Abutilon theophrasti
Summary of the method: as §1

cocklebur = experiment: Test B pre/postemergence cocklebur; format: in vivo, Xanthium strumarium
Summary of the method: as §1

[1] = Postemergence, Rate 62 g/ha, scale 0 to 10, 0 is no effect, 10 is complete control
[2] = Postemergence, Rate 125 g/ha, scale of 0 to 10 where 0 is no effect and 10 is complete control
[3] = Rate 62 g/ha, Preemergence, scale 0 to 10
[4] = Rate 125 g/ha, Preemergence, scale 0 to 10 (0 no effect, 10 complete control)
[5] = Rate 250 g/ha, Postemergence, scale 0 to 10, 0 is no effect, 10 is complete control
[6] = Postemergence, Rate 500 g/ha, scale 0 (no effect) to 10 (complete control)
[7] = Preemergence, Rate 250 g/ha, scale 0 (no effect) to 10 (complete control)
[8] = Rate 500 g/ha, Preemergence, scale 0 to 10 (0 no effect, 10 complete control)

CC(C)N(C(=O)n1oc(=O)n(CCCCCl)c1=O)c1ccccc1 [Compound 792]
Plant response rating, Redroot pigweed (pigweed; [1]): 0
Redroot pigweed plant response rating (pigweed; [2]): 6
Redroot pigweed plant response rating (pigweed; [3]): 7
Redroot pigweed plant response rating (pigweed; [4]): 9
Redroot pigweed plant response rating (pigweed; [5]): 6
Plant response rating, Blackgrass (blackgrass; [1]): 4
Blackgrass plant response rating (blackgrass; [2]): 7
Blackgrass plant response rating (blackgrass; [6]): 7
Blackgrass plant response rating (blackgrass; [7]): 8
Blackgrass plant response rating (blackgrass; [3]): 1
Blackgrass plant response rating (blackgrass; [4]): 4
Plant response rating, Corn (corn; [1]): 0
Corn plant response rating (corn; [2]): 1
Corn plant response rating (corn; [6]): 3
Corn plant response rating (corn; [7]): 4
Corn plant response rating (corn; [3]): 0
Corn plant response rating (corn; [4]): 2
Corn plant response rating (corn; [5]): 2
Corn plant response rating (corn; [8]): 4
Plant response rating, Rape (rape; [1]): 3
Rape plant response rating (rape; [2]): 3
Rape plant response rating (rape; [6]): 7
Rape plant response rating (rape; [3]): 0
Rape plant response rating (rape; [4]): 0
Rape plant response rating (rape; [5]): 7
Plant response rating, Morningglory (morningglory; [1]): 6
Morningglory plant response rating (morningglory; [2]): 7
Morningglory plant response rating (morningglory; [6]): 10
Morningglory plant response rating (morningglory; [3]): 0
Morningglory plant response rating (morningglory; [4]): 0
Morningglory plant response rating (morningglory; [5]): 10
Morningglory plant response rating (morningglory; [8]): 0
Plant response rating, Wild oats (wild oat; [1]): 0
Wild oats plant response rating (wild oat; [6]): 6
Wild oats plant response rating (wild oat; [3]): 0
Wild oats plant response rating (wild oat; [4]): 0
Wild oats plant response rating (wild oat; [5]): 2
Plant response rating, B. signalgrass (surinam grass; [1]): 0
B. signalgrass plant response rating (surinam grass; [2]): 0
B. signalgrass plant response rating (surinam grass; [7]): 9
B. signalgrass plant response rating (surinam grass; Rate 62 g/ha, Preemergence, scale 0 (no effect) to 10 (complete control)): 0
B. signalgrass plant response rating (surinam grass; [4]): 0
B. signalgrass plant response rating (surinam grass; [5]): 0
B. signalgrass plant response rating (surinam grass; Rate 500 g/ha, Postemergence, scale 0 to 10, 0 is no effect, 10 is complete control): 2
Plant response rating, Giant foxtail (giant foxtail; [1]): 2
Giant foxtail plant response rating (giant foxtail; [2]): 9
Giant foxtail plant response rating (giant foxtail; [6]): 9
Giant foxtail plant response rating (giant foxtail; [7]): 10
Giant foxtail plant response rating (giant foxtail; [3]): 10
Giant foxtail plant response rating (giant foxtail; [4]): 10
Giant foxtail plant response rating (giant foxtail; [5]): 9
Giant foxtail plant response rating (giant foxtail; [8]): 10
Plant response rating, Crabgrass (crabgrass; [1]): 2
Crabgrass plant response rating (crabgrass; [2]): 9
Crabgrass plant response rating (crabgrass; [6]): 9
Crabgrass plant response rating (crabgrass; [7]): 10
Crabgrass plant response rating (crabgrass; [3]): 10
Crabgrass plant response rating (crabgrass; [4]): 10
Crabgrass plant response rating (crabgrass; [8]): 10
Plant response rating, Nutsedge (purple nutsedge; [1]): 0
Nutsedge plant response rating (purple nutsedge; [2]): 0
Nutsedge plant response rating (purple nutsedge; [6]): 0
Nutsedge plant response rating (purple nutsedge; [3]): 0
Nutsedge plant response rating (purple nutsedge; [4]): 0
Nutsedge plant response rating (purple nutsedge; [5]): 0
Nutsedge plant response rating (purple nutsedge; [8]): 0
Bedstraw plant response rating (bedstraw; [2]): 7
Bedstraw plant response rating (bedstraw; [7]): 4
Bedstraw plant response rating (bedstraw; [3]): 0
Bedstraw plant response rating (bedstraw; [4]): 0
Plant response rating, Soybean (soybean; [1]): 4
Soybean plant response rating (soybean; [6]): 7
Soybean plant response rating (soybean; [3]): 0
Soybean plant response rating (soybean; [4]): 0
Soybean plant response rating (soybean; [5]): 5
Soybean plant response rating (soybean; [8]): 0
Plant response rating, Sugarbeets (sugar beet; [1]): 0
Sugarbeets plant response rating (sugar beet; [6]): 2
Sugarbeets plant response rating (sugar beet; [3]): 0
Sugarbeets plant response rating (sugar beet; [4]): 3
Sugarbeets plant response rating (sugar beet; [5]): 2
Plant response rating, Wheat (wheat; [1]): 0
Wheat plant response rating (wheat; [6]): 3
Wheat plant response rating (wheat; [3]): 0
Wheat plant response rating (wheat; [4]): 0
Wheat plant response rating (wheat; [5]): 1
Plant response rating, Velvetleaf (velvetleaf; [1]): 0
Velvetleaf plant response rating (velvetleaf; [6]): 7
Velvetleaf plant response rating (velvetleaf; [3]): 0
Velvetleaf plant response rating (velvetleaf; [4]): 3
Velvetleaf plant response rating (velvetleaf; [5]): 6
Velvetleaf plant response rating (velvetleaf; [8]): 5
Plant response rating, Cocklebur (cocklebur; [1]): 0
Cocklebur plant response rating (cocklebur; [2]): 1
Cocklebur plant response rating (cocklebur; [6]): 3
Cocklebur plant response rating (cocklebur; [7]): 0
Cocklebur plant response rating (cocklebur; [3]): 0
Cocklebur plant response rating (cocklebur; [5]): 3
Cocklebur plant response rating (cocklebur; [8]): 0
